In the first test the test system is Huh-7 cells containing the self-replicating, subgenomic HCV replicon. Description: HCV replicon assay (luciferase reporter). The conditions noted are these: Hepatitis C virus, Huh-7, 72 h. The test is classed as cell-based. Here is the method: Huh-7 cells containing the self-replicating, subgenomic HCV replicon with a stable luciferase (LUC) reporter were cultured in Dulbecco's modified Eagle's medium (DMEM) containing 2 mM L-glutamine and supplemented with 10% heat-inactivated fetal bovine serum (FBS), 1% penicillin-streptomyocin, 1% nonessential amino acids, and 0.5 mg/mL G418.
Determination of 50% inhibitory concentration (EC50) of compounds in HCV replicon cells were performed by the following procedure. On the first day, 5,000 HCV replicon cells were plated per well in a 96-well plate. On the following day, test compounds were solubilized in 100% DMSO to 100× the desired final testing concentration. Each compound was then serially diluted (1:3) up to 9 different concentrations. Compounds in 100% DMSO are reduced to 10% DMSO by diluting 1:10 in cell culture media. The compounds were diluted to 10% DMSO with cell culture media, which were used to dose the HCV replicon cells in 96-well format. The final DMSO concentration was 1%. The HCV replicon cells were incubated at 37° C. for 72 hours. At 72 hours, cells were processed when the cells are still subconfluent. Compounds that reduce the LUC signal are determined by Bright-Glo Luciferase Assay (Promega, Madison, Wis.). % Inhibition was determined for each compound concentration in relation to the control cells (untreated HCV replicon) to calculate the EC50.
Compounds of Formula (I) are active in the replicon assay. The antiviral activity of exemplary compounds is shown in Table 3, where ‘A’ indicates an EC50<1 μM, ‘B’ indicates an EC50≧1 μM and <10 μM, and ‘C’ indicates an EC50≧10 μM and <100 μM.
For orientation: A replicon is a self-replicating genome or part of one, used to study replication in cells.
On to `C#C[C@@]1(O)[C@H](O)[C@@H](CO[P@](=S)(N[C@@H](C)C(=O)OC(C)C)Oc2ccccc2)O[C@H]1n1ccc(=O)[nH]c1=O` [Compound 1ab], for which the EC50 (in general, the concentration needed to bring the measured effect to its halfway point) was below 1 µM.

The compound `C#C[C@@]1(O)[C@H](O)[C@@H](COP(=S)(N[C@@H](CCSC)C(=O)OC(C)C)Oc2ccccc2)O[C@H]1n1ccc(=O)[nH]c1=O` (some centres unmarked) [Compound 7a] yielded an EC50 below 1 µM. Same read-out and setting: for `CC(C)OC(=O)[C@H](C)NP(=S)(OC[C@H]1O[C@@H](n2ccc(=O)[nH]c2=O)[C@@](O)(C#CI)[C@@H]1O)Oc1ccccc1` (some centres unmarked) [Compound 15a] the value was below 1 µM; for `CCC#C[C@@]1(O)[C@H](O)[C@@H](COP(=S)(N[C@@H](C)C(=O)OC(C)C)Oc2ccccc2)O[C@H]1n1ccc(=O)[nH]c1=O` (some centres unmarked) [Compound 18a], 10 to 100 µM; for `C#C[C@@]1(O)[C@H](O)[C@@H](COP(=S)(N[C@@H](C)C(=O)OC(C)C)Oc2ccc(F)cc2)O[C@H]1n1ccc(=O)[nH]c1=O` (some centres unmarked) [Compound 10a], below 1 µM. Compound `C#C[C@@]1(O)[C@H](O)[C@@H](COP(=S)(N[C@@H](CC(C)C)C(=O)OC(C)C)Oc2ccccc2)O[C@H]1n1ccc(=O)[nH]c1=O` (some centres unmarked) [Compound 9a] returned an EC50 of 1 to 10 µM.

Compound `C#C[C@@]1(O)[C@H](O)[C@@H](COP(=S)(N[C@H](C(=O)OC(C)C)C(C)C)Oc2ccccc2)O[C@H]1n1ccc(=O)[nH]c1=O` (some centres unmarked) [Compound 8a] gave an EC50 of 10 to 100 µM.

`C#C[C@@]1(O)[C@H](O)[C@@H](CO[P@@](=S)(N[C@@H](C)C(=O)OC(C)C)Oc2ccccc2)O[C@H]1n1ccc(=O)[nH]c1=O` [Compound 1aa]: the EC50 is below 1 µM. `C#C[C@@]1(O)[C@H](O)[C@@H](COP(=S)(N[C@@H](C)C(=O)OC(C)C)Oc2cccc3ccccc23)O[C@H]1n1ccc(=O)[nH]c1=O` (some centres unmarked) [Compound 13a] gave an EC50 below 1 µM. The same measure, in the same setting: for `C#C[C@@]1(O)[C@H](O)[C@@H](COP(=S)(N[C@@H](CCC)C(=O)OC(C)C)Oc2ccccc2)O[C@H]1n1ccc(=O)[nH]c1=O` (some centres unmarked) [Compound 19a] the value was below 1 µM; for `C#C[C@@]1(O)[C@H](O)[C@@H](COP(=S)(N[C@@H](C)C(=O)OC(C)C)Oc2ccccc2)O[C@H]1n1ccc(=O)[nH]c1=O` (some centres unmarked) [Compound 1a], below 1 µM. The same measure, in the same setting: for `C#C[C@@]1(O)[C@H](O)[C@@H](COP(=S)(N[C@@H](C)C(=O)OC(C)C)Oc2ccc(F)c(Cl)c2)O[C@H]1n1ccc(=O)[nH]c1=O` (some centres unmarked) [Compound 12a] the value was below 1 µM; for `C#C[C@@]1(O)[C@H](O)[C@@H](COP(=S)(N[C@@H](C)C(=O)OC(C)C)Oc2ccccc2)O[C@H]1n1cnc2c(=O)[nH]c(N)nc21` (some centres unmarked) [Compound 6a], 1 to 10 µM; for `C#C[C@@]1(F)[C@H](O)[C@@H](COP(=S)(N[C@@H](C)C(=O)OC(C)C)Oc2ccccc2)O[C@H]1n1ccc(=O)[nH]c1=O` (some centres unmarked) [Compound 16a], 1 to 10 µM. The same measure, in the same setting: under `CC#C[C@@]1(O)[C@H](O)[C@@H](COP(=S)(N[C@@H](C)C(=O)OC(C)C)Oc2ccccc2)O[C@H]1n1ccc(=O)[nH]c1=O` (some centres unmarked) [Compound 14a] stands 1 to 10 µM; under `C=C[C@@]1(O)[C@H](O)[C@@H](COP(=S)(N[C@@H](C)C(=O)OC(C)C)Oc2ccccc2)O[C@H]1n1ccc(=O)[nH]c1=O` (some centres unmarked) [Compound 2a], 1 to 10 µM; under `C#C[C@@]1(O)[C@H](O)[C@@H](COP(=S)(N[C@@H](C)C(=O)OC2CCCCC2)Oc2ccccc2)O[C@H]1n1cnc2c(=O)[nH]c(N)nc21` (some centres unmarked) [Compound 17a], 1 to 10 µM. `C#C[C@@]1(O)[C@H](O)[C@@H](COP(=S)(N[C@@H](CC)C(=O)OC(C)C)Oc2ccccc2)O[C@H]1n1ccc(=O)[nH]c1=O` (some centres unmarked) [Compound 21a] registered an EC50 below 1 µM. In turn, `CC(C)C#C[C@@]1(O)[C@H](O)[C@@H](COP(=S)(N[C@@H](C)C(=O)OC(C)C)Oc2ccccc2)O[C@H]1n1ccc(=O)[nH]c1=O` (some centres unmarked) [Compound 20a] returned an EC50 of 10 to 100 µM. Turning to `C#C[C@@]1(O)[C@H](O)[C@@H](COP(=S)(N[C@@H](C)C(=O)OC(C)C)Oc2ccc(Cl)cc2)O[C@H]1n1ccc(=O)[nH]c1=O` (some centres unmarked) [Compound 11a], the EC50 was below 1 µM. For `C#C[C@@]1(O)[C@H](O)[C@@H](COP(=S)(N[C@@H](C)C(=O)OC(C)C)Oc2ccccc2)O[C@H]1n1cnc2c(N)ncnc21` (some centres unmarked) [Compound 4a], the EC50 is below 1 µM.

For another test, the system named is HCV genotype 1b HCV replicon harbored in Huh7 cells. Kind of test: Combination testing in HCV replicon (CalcuSyn CI, MacSynergy II synergy volume). The test is classed as cell-based.
Details: not given
Here is the method: Two or more test compounds were tested in combination with each other using an HCV genotype 1b HCV replicon harbored in Huh7 cells with a stable luciferase (LUC) reporter. Cells were cultured under standard conditions in Dulbecco's modified Eagle's medium (DMEM; Mediatech Inc, Herndon, Va.) containing 10% heat-inactivated fetal bovine serum (FBS; Mediatech Inc, Herndon, Va.) 2 mM L-glutamine, and nonessential amino acids (JRH Biosciences). HCV replicon cells were plated in a 96-well plate at a density of 10^4 cells per well in DMEM with 10% FBS. On the following day, the culture medium was replaced with DMEM containing either no compound as a control, the test compounds serially diluted in the presence of 2% FBS and 0.5% DMSO, or a combination of compound 1a with one or more test compounds serially diluted in the presence of 2% FBS and 0.5% DMSO. The cells were incubated with no compound as a control, with the test compounds, or the combination of compounds for 72 hours. The direct effects of the combination of the test compounds were examined using a luciferase (LUC) based reporter as determined by the Bright-Glo Luciferase Assay (Promega, Madison, Wis.). Dose-response curves were determined for individual compounds and fixed ratio combinations of two or more test compounds.
The effects of test compound combinations were evaluated by two separate methods. In the Loewe additivity model, the experimental replicon data was analyzed by using CalcuSyn (Biosoft, Ferguson, Mo.), a computer program based on the method of Chou and Talalay. The program uses the experimental data to calculate a combination index (CI) value for each experimental combination tested. […]
The second method utilized for evaluating combination effects used a program called MacSynergy II. […] The volumes of synergy (positive volumes) or antagonism (negative volumes) represent the relative quantity of synergism or antagonism per change in the concentrations of the two drugs. […]
On to `CC1CCC(C(=O)N(c2cc(C#CC(C)(C)C)sc2C(=O)O)C2CCC(O)CC2)CC1` (centres unmarked) [Compound 3003], for which the “Synergy Volume” value is listed as 32 μM^2%. The same measure, in the same setting: for `CCC[C@H](NC(=O)[C@@H]1[C@H]2CCC[C@H]2CN1C(=O)[C@@H](NC(=O)[C@@H](NC(=O)c1cnccn1)C1CCCCC1)C(C)(C)C)C(=O)C(=O)NC1CC1` [Compound 1001, Telaprevir] the value was 104 μM^2%.

Staying with this test, now noted: combination of compound 1a with the listed compound; 72 hours; MacSynergy II, Bliss independence; 25-100 synergistic, >100 strong synergistic.
In the case of `CC(C)OC(=O)C(C)NP(=S)(OC[C@H]1O[C@@H](n2ccc(=O)[nH]c2=O)[C@](C)(O)[C@@H]1O)Oc1ccccc1` (some centres unmarked) [Compound 6002], the “Synergy Volume” value is 29 μM^2%.

Another test addresses NS5B570-Con1 (Delta-21) (Hepatitis C virus genotype 1b, UniProt Q9WMX2). Kind of test: NS5B inhibition assay. The test is classed as biochemical, HCV. To be noted: IC50, incorporation of tritiated NMP into acid-insoluble RNA, 2 hours at 37° C. Here is the method:
The enzyme activity of NS5B570-Con1 (Delta-21) was measured as an incorporation of tritiated NMP into acid-insoluble RNA products. The complementary IRES (cIRES) RNA sequence was used as a template, corresponding to 377 nucleotides from the 3′-end of HCV (−) strand RNA of the Con-1 strain, with a base content of 21% Ade, 23% Ura, 28% Cyt, and 28% Gua. The cIRES RNA was transcribed in vitro using a T7 transcription kit (Ambion, Inc.) and purified using the Qiagen RNeasy maxi kit. HCV polymerase reactions contained 50 nM NS5B570-Con1, 50 nM cIRES RNA, about 0.5 μCi tritiated NTP, 1 μm of competing cold NTP, 20 mM NaCl, 40 mm Tris-HCl (pH 8.0), 4 mm dithiothreitol, and 4 mm MgCl2. Standard reactions were incubated for 2 hours at 37° C., in the presence of increasing concentration of inhibitor. At the end of the reaction, RNA was precipitated with 10% TCA, and acid-insoluble RNA products were filtered on a size exclusion 96-well plate. After washing of the plate, scintillation liquid was added and radio labeled RNA products were detected according to standard procedures with a Trilux Topcount scintillation counter. The compound concentration at which the enzyme-catalyzed rate was reduced by 50% (IC50) was calculated by fitting the data to a non-linear regression (sigmoidal). The IC50 values were derived from the mean of several independent experiments. […]
On to `C#CC1(O)C(O)C(COP(O)(=S)OP(=O)(O)OP(=O)(O)O)OC1n1ccc(=O)[nH]c1=O` (centres unmarked) [Compound 24a], for which the IC50 – broadly, the concentration at which inhibition is half-maximal – was below 10 µM. `C#CC1(O)C(O)C(COP(O)(=S)OP(=O)(O)OP(=O)(O)O)OC1n1ccc(=O)[nH]c1=O` (centres unmarked) [Compound 23a]: the 50% inhibitory concentration (IC50) is below 1 µM.

Source of the values: patent US8980865B2, “Substituted nucleotide analogs” (priority 2011, dated 2015).
